Tests used:
[1] = system: S. aureus internalized in human primary osteoblast-like cells; test: Effect against internalized bacteria; assay type: cell-based, Staphylococcus aureus; conditions: CM with 1% FCS, n = 7
Description: Human primary osteoblast-like cells were cultivated in 24-well plates with cultivation medium until they reached a minimum confluence of 80%. For the experiment, cells were washed and S. aureus (ATCC 29213) in cultivation medium added (~2 × 10^7 cfu/ml). After an incubation of 45 minutes, extracellular bacteria were killed using 200 µg/ml gentamicin dissolved in CM with 10% FCS, without P/S. After 1 hour incubation, gentamicin solution was removed, cells washed three times and AMP2 (33 and 67 µg/ml) in CM with only 1% FCS + no P/S added for 4 and 24 hours. As reference, 7.5 µg/ml rifampicin was used. All incubation steps were done in an incubator with 37 °C, 95% humidity and 5% CO2. For determination of the internalized bacteria, cells were lysed and the supernatant plated on CA plates. Experiment were done with n = 7.

S. aureus biofilm = test: Biofilm assay by microcalorimetry and plating (MBCB); assay type: cell-based, Staphylococcus aureus; conditions: for inhibition of the biofilm compared to the growth control: MH++, n = 6
Description: To confirm MIC of the AMP2 by isothermal microcalorimetry, three different bouillons were tested: Mueller-Hinton II bouillon with adjusted cations (MH^++; BBL, Germany), Mueller-Hinton bouillon with low cations (MH^+; with 3–4 mg/l Ca^2+ and 5–6 mg/l Mg^2+; Oxoid, Germany) and Mueller-Hinton bouillon without cations (MH^−; Merck, Germany). AMP2 concentrations of 2–33 µg/ml were tested with the three different bouillons and gentamicin concentrations of 0.125–2 µg/ml were analyzed with MH^++. Staphylococcus aureus (ATCC 29213, 300 µl with 10^5 cfu/ml) was added to each microcalorimetry glass ampoule (Waters; Germany) containing 3.7 ml of AMP or gentamicin solution of (n = 3). The ampoules were hermetically sealed and heat flow (W) was measured for 24 hours in the calorimeter TAM III (TA Instruments, USA). For the biofilm assay, S. aureus biofilm was grown on glass beads (4 mm diameter, 60 µm pores; ROBU Glasfilter-Geräte, Germany) in MH^++ bouillon at 37 °C in an aerobe atmosphere for 24 hours. After washing with sodium chloride, beads were incubated with AMP2 (133, 267, 533 µg/ml) or daptomycin (128 µg/ml) in MH^++ bouillon for another 24 hours at 37 °C. Beads were washed again and added to the glass ampoule with fresh MH^++ bouillon. The total heat (J) was measured for 48 hours in the calorimeter. A concentration, which inhibits minimum 90% of biofilm, can be defined as the minimal biofilm inhibitory concentration (MICB). All samples were tested with n = 6.
Furthermore, the MBC for biofilms (MBCB) where 99.9% of all bacteria are killed was determined. After measurement, bouillon and glass beads were plated on CA plates and incubated for 24 hours at 37 °C in an aerobe atmosphere.

Question: Which “internalized bacteria compared to 0 μg/ml AMP [= 100%]” value (shortened to “internalized bacteria … [= 100%]”) ([1]; 33 μg/ml, 4 h) does the source give for “KRRWRIWLV [AMP2, 9mer cationic antimicrobial peptide … from an optimized peptide library]” here?
Answer: 39%

Question: And the “internalized bacteria … [= 100%]” value ([1]; 33 μg/ml, 24 h)?
Answer: 3%

Question: And the “internalized bacteria … [= 100%]” value ([1]; 67 μg/ml, 4 h)?
Answer: 16%

Question: And the “internalized bacteria … [= 100%]” value ([1]; 67 μg/ml, 24 h)?
Answer: 0.18%

Question: What about the “inhibition of the biofilm compared to the growth control” value (S. aureus biofilm; 133 µg/ml AMP2, total heat after 48 hours) of the same sequence?
Answer: 13 ± 4%

Question: What about the “inhibition of the biofilm, single samples” value (S. aureus biofilm; 267 µg/ml AMP2, five of the six samples (the sixth completely killed the bacteria)) of the same sequence?
Answer: 18–38%

Question: What about the “inhibition of the biofilm compared to the growth control” value (S. aureus biofilm; 267 µg/ml AMP2, total heat after 48 hours) of the same sequence?
Answer: 35 ± 29%

Question: What about the “killing of the biofilm (MBCB determination by plating samples and glass beads)” value (S. aureus biofilm; 533 µg/ml AMP2, all samples, no growth on agar plates) of the same sequence?
Answer: totally killed

Question: What about the “inhibition of the biofilm compared to the growth control” value (S. aureus biofilm; 533 µg/ml AMP2, total heat after 48 hours) of the same sequence?
Answer: 97 ± 1%

Reference: article PMC5431435, “A short artificial antimicrobial peptide shows potential to prevent or treat bone infections” (Scientific Reports, 2017)
